In the NIST ThermoML archive (doi:10.1021/acs.jced.7b01125):

Assay: xn = mol fraction of the nth substance listed
Settings: Gas, Buoyancy - hydrostatic balance with magnetic suspension - one sinker

[HH] [hydrogen] + C
Settings | mass density [kg/m3]
275.01 K, 5005 kPa, x2 = 0.9 | 35.103
275.01 K, 6005 kPa, x2 = 0.9 | 42.849
275.01 K, 6005 kPa, x2 = 0.9499 | 45.691
275.01 K, 7005 kPa, x2 = 0.9 | 50.825
275.01 K, 7005 kPa, x2 = 0.9499 | 54.384
275.01 K, 8002 kPa, x2 = 0.9 | 58.973
275.01 K, 8003 kPa, x2 = 0.9499 | 63.333
275.01 K, 9002 kPa, x2 = 0.9 | 67.322
275.01 K, 9003 kPa, x2 = 0.9499 | 72.54
275.01 K, 10005 kPa, x2 = 0.9 | 75.811
275.01 K, 10006 kPa, x2 = 0.9499 | 81.955
275.01 K, 11001 kPa, x2 = 0.4997 | 43.883
275.01 K, 11005 kPa, x2 = 0.9499 | 91.455
275.01 K, 11006 kPa, x2 = 0.9 | 84.369
275.01 K, 12007 kPa, x2 = 0.9 | 92.928
275.01 K, 12009 kPa, x2 = 0.9499 | 101.013
275.01 K, 13009 kPa, x2 = 0.9 | 101.458
275.01 K, 13011 kPa, x2 = 0.9499 | 110.507
275.01 K, 14003 kPa, x2 = 0.4997 | 55.493
275.01 K, 14006 kPa, x2 = 0.9 | 109.837
275.01 K, 14006 kPa, x2 = 0.9499 | 119.787
275.01 K, 15000 kPa, x2 = 0.4997 | 59.259
275.01 K, 15008 kPa, x2 = 0.9 | 118.086
275.01 K, 15018 kPa, x2 = 0.9499 | 128.986
275.01 K, 16003 kPa, x2 = 0.9 | 126.067
275.01 K, 16005 kPa, x2 = 0.4997 | 63.009
275.01 K, 16016 kPa, x2 = 0.9499 | 137.753
275.01 K, 17006 kPa, x2 = 0.4997 | 66.693
275.01 K, 17009 kPa, x2 = 0.9 | 133.878
275.01 K, 17010 kPa, x2 = 0.9499 | 146.15
275.01 K, 18001 kPa, x2 = 0.4997 | 70.294
275.01 K, 18006 kPa, x2 = 0.9 | 141.344
275.01 K, 19020 kPa, x2 = 0.9499 | 161.966
275.01 K, 19297 kPa, x2 = 0.4997 | 74.901
275.01 K, 19909 kPa, x2 = 0.9499 | 168.44
275.02 K, 18019 kPa, x2 = 0.9499 | 154.292
275.02 K, 19012 kPa, x2 = 0.9 | 148.567
275.02 K, 19897 kPa, x2 = 0.9 | 154.661
299.95 K, 3999 kPa, x2 = 0.9 | 24.698
299.95 K, 16003 kPa, x2 = 0.9 | 107.531
299.96 K, 999 kPa, x2 = 0.9 | 5.941
299.96 K, 999 kPa, x2 = 0.9499 | 6.241
299.96 K, 1999 kPa, x2 = 0.9 | 12.047
299.96 K, 2000 kPa, x2 = 0.9499 | 12.675
299.96 K, 2983 kPa, x2 = 0.9499 | 19.18
299.96 K, 2990 kPa, x2 = 0.9 | 18.241
299.96 K, 3999 kPa, x2 = 0.9499 | 26.096
299.96 K, 4999 kPa, x2 = 0.9 | 31.243
299.96 K, 4999 kPa, x2 = 0.9499 | 33.078
299.96 K, 5999 kPa, x2 = 0.9 | 37.914
299.96 K, 6000 kPa, x2 = 0.9499 | 40.236
299.96 K, 6999 kPa, x2 = 0.9 | 44.708
299.96 K, 7000 kPa, x2 = 0.9499 | 47.554
299.96 K, 8001 kPa, x2 = 0.9 | 51.609
299.96 K, 8001 kPa, x2 = 0.9499 | 55.012
299.96 K, 9002 kPa, x2 = 0.9 | 58.59
299.96 K, 9003 kPa, x2 = 0.9499 | 62.59
299.96 K, 10003 kPa, x2 = 0.9 | 65.636
299.96 K, 10004 kPa, x2 = 0.9499 | 70.258
299.96 K, 11001 kPa, x2 = 0.9499 | 77.955
299.96 K, 11003 kPa, x2 = 0.9 | 72.706
299.96 K, 12002 kPa, x2 = 0.9 | 79.763
299.96 K, 12003 kPa, x2 = 0.9499 | 85.693
299.96 K, 13002 kPa, x2 = 0.9 | 86.81
299.96 K, 13003 kPa, x2 = 0.9499 | 93.405
299.96 K, 14003 kPa, x2 = 0.9 | 93.813
299.96 K, 14006 kPa, x2 = 0.9499 | 101.077
299.96 K, 15004 kPa, x2 = 0.9499 | 108.622
299.96 K, 15005 kPa, x2 = 0.9 | 100.739
299.96 K, 16005 kPa, x2 = 0.9499 | 116.045
299.96 K, 17007 kPa, x2 = 0.9 | 114.233
299.96 K, 17007 kPa, x2 = 0.9499 | 123.312
299.96 K, 18003 kPa, x2 = 0.9 | 120.727
299.96 K, 18007 kPa, x2 = 0.9499 | 130.371
299.96 K, 18999 kPa, x2 = 0.9499 | 137.175
299.96 K, 19011 kPa, x2 = 0.9 | 127.134
299.96 K, 19426 kPa, x2 = 0.9499 | 140.03
299.96 K, 19795 kPa, x2 = 0.9 | 131.987
324.96 K, 999 kPa, x2 = 0.9 | 5.467
324.96 K, 1002 kPa, x2 = 0.4997 | 3.349
324.96 K, 1999 kPa, x2 = 0.9 | 11.036
324.96 K, 2003 kPa, x2 = 0.4997 | 6.689
324.96 K, 2987 kPa, x2 = 0.4997 | 9.973
324.96 K, 2999 kPa, x2 = 0.9 | 16.7
324.96 K, 4000 kPa, x2 = 0.9 | 22.453
324.96 K, 4001 kPa, x2 = 0.4997 | 13.346
324.96 K, 4999 kPa, x2 = 0.9 | 28.286
324.96 K, 5001 kPa, x2 = 0.4997 | 16.663
324.96 K, 6000 kPa, x2 = 0.9 | 34.198
324.96 K, 6001 kPa, x2 = 0.4997 | 19.966
324.96 K, 6999 kPa, x2 = 0.9 | 40.162
324.96 K, 7000 kPa, x2 = 0.4997 | 23.25
324.96 K, 8002 kPa, x2 = 0.4997 | 26.528
324.96 K, 8004 kPa, x2 = 0.9 | 46.209
324.96 K, 8999 kPa, x2 = 0.4997 | 29.768
324.96 K, 9000 kPa, x2 = 0.9 | 52.245
324.96 K, 9001 kPa, x2 = 0.9499 | 55.531
324.96 K, 9926 kPa, x2 = 0.4997 | 32.763
